Values after ≈ are worked out from the molar mass of the structure shown. Where a name gives a salt, the structure may show the parent alone.
How the values were obtained:
[1] = test system: Mycobacterium smegmatis (ATCC607); assay: In-vitro anti-bacterial activity against strain M. Smegmatis ATCC607; assay type: cell-based; conditions: 90% inhibitory concentration for bacterial growth, Alamar Blue fluorescence; for IC90 MSM 607: 48 hours; for IC90: Mycolicibacterium smegmatis, ATCC607, 48 h, read-out: IC90 MSM 607
In short: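 IC90 (μg/ml) derived from Alamar Blue fluorescence (530/590 nm) after 48 h growth at 37 °C under 5% CO2. About 250 CFU per well in Mueller-Hinton broth faced five-fold serial compound dilutions in BSA-containing wells.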

[2] = test system: Staphylococcus aureus (ATCC29213); assay: In-vitro anti-bacterial activity, microtitre plate assay, IC90 determination (non-mycobacterial strains); assay type: cell-based; conditions: 90% inhibitory concentration for bacterial growth, resazurin fluorescence; for IC90 STA B29213: 24 hours; for IC90: Staphylococcus aureus, ATCC29213, 24 h, read-out: IC90 STA B29213
In short: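 Growth inhibition measured fluorometrically with resazurin (530/590 nm) after overnight 37 °C incubation under normal atmosphere. Bacteria added at roughly 100 TCID50 per well in Mueller-Hinton broth to five-fold compound dilution series; IC90 reported in μg/ml.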

Row | Structure (SMILES) | melting point [°C] | IC90 MSM 607 [1] [µg/mL] | IC90 STA B29213 [2] [µg/mL] | IC90 [1] [µg/mL] | IC90 [2] [µg/mL]
1 | O=c1[nH]c2ccc(Cl)cc2cc1C(c1ccc(Cl)cc1)C1(O)CCNC(Cc2ccc(F)cc2)C1 (stereo not drawn) (as salt: hydrochloride) [Compound 343] | > 250 |  |  |  | 
2 | O=c1[nH]c2ccc(Br)cc2cc1C(c1ccc(Cl)cc1)C1(O)CCNC(Cc2ccc(F)c(F)c2)C1 (stereo not drawn) [Compound 127] |  | 3.06 (≈ 5.33 µM) | 1.93 (≈ 3.36 µM) |  | 
3 | CS(=O)(=O)c1ccc2[nH]c(=O)c(C(c3ccc(Cl)cc3)C3(O)CCN[C@@H](Cc4ccc(F)c(F)c4)C3)cc2c1 (stereo in doubt) [Compound 207] |  | 3.83 (≈ 6.68 µM) | 3.83 (≈ 6.68 µM) |  | 
4 | O=c1[nH]c2ccc(F)cc2cc1C(c1ccc(Cl)cc1)C1(O)CCNC(Cc2ccccc2)C1 (stereo not drawn) [Compound 376] |  | 2.57 (≈ 5.39 µM) | 3.24 (≈ 6.79 µM) |  | 
5 | CC1CC(O)(C(c2ccc(Cl)cc2)c2cc3cc(Br)ccc3[nH]c2=O)CCN1 (stereo not drawn) [Compound 129] |  |  |  | 7.9 (≈ 17.1 µM) | 12.5 (≈ 27.1 µM)
6 | COc1nc2ccccc2cc1C(c1ccccc1)C1(O)CCNC(Cc2ccccc2)C1 (stereo not drawn) [Compound 400] |  | >12.47 | >12.47 |  | 
7 | CS(=O)(=O)c1ccc2[nH]c(=O)c(C(c3ccc(Cl)cc3)C3(O)CCNC(Cc4ccc(F)cc4)C3)cc2c1 (stereo not drawn) [Compound 58] |  | >13.94 | >13.94 |  | 
8 | COc1nc2ccccc2cc1C(c1ccc(Cl)cc1)C1(O)CCNC(CO)C1 (stereo not drawn) [Compound 10] |  |  |  | > 10.4 | > 10.4
9 | CS(=O)(=O)c1ccc2[nH]c(=O)c(C(c3cccc(Cl)c3)C3(O)CCNC(Cc4ccc(F)cc4F)C3)cc2c1 (stereo not drawn) [Compound 308] |  | 6.08 (≈ 10.6 µM) | 7.65 (≈ 13.3 µM) |  | 
10 | Cc1cc(F)ccc1C1CC(O)(C(c2ccccc2)c2cc3cc(Br)ccc3[nH]c2=O)CCN1 (stereo not drawn) [Compound 192] |  | 13.96 (≈ 26.8 µM) | 7.00 (≈ 13.4 µM) |  | 
11 | COc1nc2ccc(Br)cc2cc1C(c1cccnc1)C1(O)CCNC(Cc2ccccc2)C1 (stereo not drawn) [Compound 428] |  | 10.66 (≈ 20.6 µM) | 15.06 (≈ 29 µM) |  | 
12 | CS(=O)(=O)c1ccc2[nH]c(=O)c(C(c3ccc(Cl)cc3)C3(O)CCNC(Cc4ccc(F)c(F)c4)C3)cc2c1 (stereo not drawn) [Compound 212] |  | 6.04 (≈ 10.5 µM) | 7.60 (≈ 13.3 µM) |  | 
13 | Cc1cc(F)ccc1C1CC(O)(C(c2ccccc2)c2cc3cc(S(C)(=O)=O)ccc3[nH]c2=O)CCN1 (stereo not drawn) [Compound 263] |  | >13.89 | >13.89 |  | 
14 | COc1nc2ccc(SC)cc2cc1C(c1ccc(Cl)cc1)C1(O)CCNCC1Cc1cccc(F)c1 (stereo not drawn) [Compound 284] |  | 3.38 (≈ 6.29 µM) | 4.25 (≈ 7.91 µM) |  | 
15 | CSc1ccc2[nH]c(=O)c(C(c3ccc(Cl)cc3)C3(O)CCNC(CC4CCCCC4)C3)cc2c1 (stereo not drawn) [Compound 297] |  | 13.65 (≈ 26.7 µM) | 3.43 (≈ 6.71 µM) |  | 
16 | CSc1ccc2[nH]c(=O)c(C(c3ccc(Cl)cc3)C3(O)CCNC(CC4CCCCC4)C3)cc2c1 (stereo not drawn) [Compound 295] |  | 3.43 (≈ 6.71 µM) | 3.43 (≈ 6.71 µM) |  | 

Row | Structure (SMILES) | melting point [°C] | IC90 MSM 607 [1] [µg/mL] | IC90 STA B29213 [2] [µg/mL] | IC90 [1] [µg/mL] | IC90 [2] [µg/mL]
17 | O=c1[nH]c2ccc(Br)cc2cc1C(c1ccc(Cl)cc1)C1(O)CCNC(Cc2ccc(F)cc2F)C1 (stereo not drawn) [Compound 323] |  | 6.10 (≈ 10.6 µM) | 7.68 (≈ 13.4 µM) |  | 
18 | CSc1ccc2[nH]c(=O)c(C(c3ccc(Cl)cc3)C3(O)CCNC(Cc4ccc(F)cc4)C3)cc2c1 (stereo not drawn) [Compound 281] |  |  | 3.53 (≈ 6.75 µM) | 7.03 (≈ 13.4 µM) | 
19 | COc1ccc2nc(OC)c(C(c3ccccc3)C3(O)CCNC(Cc4ccccc4)C3)cc2c1 (stereo not drawn) [Compound 408] |  |  |  | > 19.2 | > 19.2
20 | O=c1[nH]c2ccc(Br)cc2cc1C(c1ccc(Cl)cc1)C1(O)CCNC(Cc2ccc(F)cc2)C1 (stereo not drawn) [Compound 365] |  | 3.74 (≈ 6.73 µM) | 3.74 (≈ 6.73 µM) |  | 
21 | Cc1cc(F)ccc1C1CC(O)(C(c2cccc(Cl)c2)c2cc3cc(S(C)(=O)=O)ccc3[nH]c2=O)CCN1 (stereo not drawn) [Compound 159] |  | >14.69 | >14.69 |  | 
22 | COc1nc2ccc(Br)cc2cc1C(n1cccn1)C1(O)CCNC(Cc2ccccc2)C1 (stereo not drawn) [Compound 429] |  |  |  | 3.87 (≈ 7.63 µM) | 7.72 (≈ 15.2 µM)
23 | O=c1[nH]c2ccc(Br)cc2cc1C(c1ccc(Cl)cc1)C1(O)CCNC(Cc2ccc(F)cc2)C1 (stereo not drawn) [Compound 364] |  | 2.97 (≈ 5.34 µM) | 3.74 (≈ 6.73 µM) |  | 
24 | CS(=O)(=O)c1ccc2[nH]c(=O)c(C(c3ccc(Cl)cc3)C3(O)CCNC(Cc4ccc(F)c(F)c4)C3)cc2c1 (stereo not drawn) [Compound 213] |  | >17.31 | >17.31 |  | 
25 | O=c1[nH]c2ccc(Cl)cc2cc1C(c1ccc(Cl)cc1)C1(O)CCNCC1F (stereo not drawn) [Compound 458] |  | 11.50 (≈ 27.3 µM) | 11.50 (≈ 27.3 µM) |  | 
26 | O=c1[nH]c2ccc(Br)cc2cc1C(c1ccc(Cl)cc1)C1(O)CCNC(Cc2ccc(F)cc2F)C1 (stereo not drawn) [Compound 316] |  | 3.05 (≈ 5.31 µM) | 3.84 (≈ 6.69 µM) |  | 
27 | Cc1cc(F)ccc1C1CC(O)(C(c2cccc(Cl)c2)c2cc3cc(S(C)(=O)=O)ccc3[nH]c2=O)CCN1 (stereo not drawn) [Compound 42] |  | 2.60 (≈ 4.68 µM) | 7.34 (≈ 13.2 µM) |  | 
28 | O=c1[nH]c2ccc(Br)cc2cc1C(c1ccc(Cl)cc1)C1(O)CCNC(Cc2ccc(F)cc2F)C1 (stereo not drawn) [Compound 315] |  | 3.84 (≈ 6.69 µM) | 3.84 (≈ 6.69 µM) |  | 
29 | CSc1ccc2[nH]c(=O)c(C(c3ccc(Cl)cc3)C3(O)CCNC(CC4CCCCC4)C3)cc2c1 (stereo not drawn) [Compound 298] |  | 6.88 (≈ 13.5 µM) | 6.88 (≈ 13.5 µM) |  | 
30 | O=c1[nH]c2ccc(Br)cc2cc1C(c1ccc(Cl)cc1)C1(O)CCNC(Cc2ccc(F)cc2)C1 (stereo not drawn) [Compound 341] |  |  | 2.36 (≈ 4.25 µM) | 4.71 (≈ 8.47 µM) | 
31 | COc1nc2ccc(F)cc2cc1C(c1ccc(Cl)cc1)C1(O)CCN(C(C)c2ccccc2)C(CO)C1 (stereo not drawn) [Compound 14] |  | 3.79 (≈ 7.08 µM) | 6.74 (≈ 12.6 µM) |  | 
32 | CSc1ccc2[nH]c(=O)c(C(c3ccc(Cl)cc3)C3(O)CCNC(c4ccccc4)C3)cc2c1 (stereo not drawn) [Compound 232] |  | 5.93 (≈ 12.1 µM) | 6.65 (≈ 13.5 µM) |  | 

Second part, the molecule after the results:

Row | melting point [°C] | IC90 MSM 607 [1] [µg/mL] | IC90 STA B29213 [2] [µg/mL] | IC90 [1] [µg/mL] | IC90 [2] [µg/mL] | Structure (SMILES)
33 |  | 4.36 (≈ 7.9 µM) | 5.49 (≈ 9.95 µM) |  |  | COc1nc2ccc(Br)cc2cc1C(c1ccc(Cl)cc1)C1(O)CCNC(Cc2ccccc2)C1 (stereo not drawn) [Compound 77]
34 |  | 1.17 (≈ 1.99 µM) | 2.34 (≈ 3.98 µM) |  |  | COc1nc2ccc(Br)cc2cc1C(c1ccc(Cl)cc1)C1(O)CCNC(Cc2ccc(F)cc2F)C1 (stereo not drawn) [Compound 51]
35 |  | 1.76 (≈ 3.17 µM) | 1.39 (≈ 2.5 µM) |  |  | COc1nc2ccc(SC)cc2cc1C(c1ccc(Cl)cc1)C1(O)CCNC(Cc2ccc(F)c(F)c2)C1 (stereo not drawn) [Compound 190]
36 |  | 1.55 (≈ 3.16 µM) | 3.09 (≈ 6.29 µM) |  |  | COc1nc2ccc(F)cc2cc1C(c1ccc(Cl)cc1)C1(O)CCNC(Cc2ccccc2)C1 (stereo not drawn) [Compound 370]
37 |  | 17.67 (≈ 32 µM) | >17.6721 |  |  | COc1nc2ccc(F)cc2cc1C(c1ccc(S(C)(=O)=O)cc1)C1(O)CCNC(c2ccc(F)cc2C)C1 (stereo not drawn) [Compound 418]
38 |  | 3.48 (≈ 6.62 µM) | 4.38 (≈ 8.34 µM) |  |  | COc1nc2ccc(Cl)cc2cc1C(c1ccc(Cl)cc1)C1(O)CCNC(Cc2ccc(F)cc2)C1 (stereo not drawn) [Compound 345]
39 |  | 2.02 (≈ 4.09 µM) | 4.02 (≈ 8.15 µM) |  |  | COc1nc2ccc(Cl)cc2cc1C(c1ccc(Cl)cc1)C1(O)CCNCC1c1ccccc1 (stereo not drawn) [Compound 412]
40 |  | 1.66 (≈ 3.16 µM) | 3.32 (≈ 6.32 µM) |  |  | COc1nc2ccc(Cl)cc2cc1C(c1ccc(Cl)cc1)C1(O)CCNC(c2ccc(F)cc2C)C1 (single isomer, unassigned) [Compound 1]
41 |  |  | 1.51 (≈ 2.81 µM) | 1.2 (≈ 2.23 µM) |  | COc1nc2ccc(SC)cc2cc1C(c1ccc(Cl)cc1)C1(O)CCNC(c2ccc(F)cc2C)C1 (stereo not drawn) [Compound 242]
42 |  | >14.83 | >14.83 |  |  | Cc1cc(F)ccc1C1CC(O)(C(c2ccc(Cl)cc2)c2cc3cc(S(C)(=O)=O)ccc3[nH]c2=O)CCN1 (stereo not drawn) [Compound 223]
43 |  | >13.43 | >13.43 |  |  | COc1nc2ccc(S(C)(=O)=O)cc2cc1C(c1ccccc1)C1(O)CCNC(c2ccc(F)cc2C)C1 (stereo not drawn) [Compound 253]
44 |  |  |  | 9.08 (≈ 19.9 µM) | 7.21 (≈ 15.8 µM) | COc1nc2ccccc2cc1C(c1ccccc1)C1(O)CCNC(c2ccc(F)cc2C)C1 (stereo not drawn) [Compound 16]
45 |  | 3.21 (≈ 6.31 µM) | 3.21 (≈ 6.31 µM) |  |  | COc1nc2ccc(Cl)cc2cc1C(c1ccc(Cl)cc1)C1(O)CCNC(Cc2cccnc2)C1 (stereo not drawn) [Compound 468]
46 |  | 2.65 (≈ 4.77 µM) |  |  | 1.87 (≈ 3.36 µM) | Cc1cc(F)ccc1C1CC(O)(C(c2ccc(Cl)cc2)c2cc3cc(Br)ccc3[nH]c2=O)CCN1 (stereo not drawn) [Compound 107]
47 |  | >14.77 | >14.77 |  |  | Cc1cc(F)ccc1C1CC(O)(C(c2ccc(Cl)cc2)c2cc3cc(S(C)(=O)=O)ccc3[nH]c2=O)CCN1 (stereo not drawn) [Compound 225]
48 |  | 1.77 (≈ 3.6 µM) | 3.54 (≈ 7.21 µM) |  |  | COc1nc2ccc(F)cc2cc1C(c1ccc(Cl)cc1)C1(O)CCNC(Cc2ccccc2)C1 (stereo not drawn) [Compound 54]
49 |  | 5.47 (≈ 10.7 µM) |  |  | 6.88 (≈ 13.5 µM) | Cc1cc(F)ccc1C1CC(O)(C(c2ccc(Cl)cc2)c2cc3cc(Cl)ccc3[nH]c2=O)CCN1 (stereo not drawn) [Compound 303]
50 |  | 5.92 (≈ 10.7 µM) | 3.73 (≈ 6.72 µM) |  |  | Cc1cc(F)ccc1C1CC(O)(C(c2ccc(Cl)cc2)c2cc3cc(S(C)(=O)=O)ccc3[nH]c2=O)CCN1 (stereo not drawn) [Compound 224]

— patent publication US9617244B2, “Antibacterial quinoline derivatives” (JANSSEN PHARMACEUTICA NV, priority 2012, dated 2017)
